US6660769B1, “N substituted 3-amino-2,2-di-c-alkyl-1,4-butyrolactones and 1,4-thiobutyrolactones for use as promoter of γ-aminobutyric acid activity and for treating nervous disorders and preparation method” (priority 1999, dated 2003)
Several values for one entry are separate records, joined by “and”; a condition that tells them apart may be missing. Identical values can stand only once. Like-named read-outs stand apart in the source and are kept apart here.

Tests used:
[1] = biological target: T1, α1β2γ2 recombinant GABA-A receptors (Homo sapiens, UniProt P14867+P18507+P47870); assay: cell-based
T1 construct: expressed in transfected cells; host or cells: Xenopus laevis oocytes injected with cRNA

[2] = system: picrotoxin binding site of the GABA-A receptor; details: for IC50: read-out: IC50 of S^35-TBPS displacement
[3] = system: GABA binding site of the GABA-A receptor; assay: [H3]muscimol displacement, brain membranes; details: 100 μM
[4] = system: benzodiazepine binding site of the GABA-A receptor; assay: [H3]flunitrazepam displacement, brain membranes
[5] = Solubility noted in the electrophysiological test
mice = details: attacks induced by pentylenetetrazole and picrotoxin; cited from earlier work
[6] = biological target: picrotoxin binding site of the GABA-A receptor; details: published compounds; read-out: Displacement of S^35-TBPS (IC50); cited from earlier work
[7] = system: GABA currents in cultured neurons; details: cited from earlier work
[8] = 200 μM, α1β2γ2, read-out: % of stimulation of the GABA currents
[9] = α1β2γ2, read-out: % of stimulation of the GABA currents

T1 sequence (P14867 28-456): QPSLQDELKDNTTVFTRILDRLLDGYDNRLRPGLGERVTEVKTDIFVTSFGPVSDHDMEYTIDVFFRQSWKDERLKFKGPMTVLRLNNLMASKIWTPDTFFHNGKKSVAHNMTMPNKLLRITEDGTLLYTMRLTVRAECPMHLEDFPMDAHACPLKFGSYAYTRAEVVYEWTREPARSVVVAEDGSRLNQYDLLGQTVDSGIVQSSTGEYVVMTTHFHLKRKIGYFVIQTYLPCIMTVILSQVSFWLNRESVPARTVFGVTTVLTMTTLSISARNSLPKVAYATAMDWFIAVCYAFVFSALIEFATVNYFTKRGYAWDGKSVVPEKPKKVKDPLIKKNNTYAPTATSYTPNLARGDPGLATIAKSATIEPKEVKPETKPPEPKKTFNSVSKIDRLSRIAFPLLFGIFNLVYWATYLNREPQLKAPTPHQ
T1 sequence (P47870 25-512 limits assumed): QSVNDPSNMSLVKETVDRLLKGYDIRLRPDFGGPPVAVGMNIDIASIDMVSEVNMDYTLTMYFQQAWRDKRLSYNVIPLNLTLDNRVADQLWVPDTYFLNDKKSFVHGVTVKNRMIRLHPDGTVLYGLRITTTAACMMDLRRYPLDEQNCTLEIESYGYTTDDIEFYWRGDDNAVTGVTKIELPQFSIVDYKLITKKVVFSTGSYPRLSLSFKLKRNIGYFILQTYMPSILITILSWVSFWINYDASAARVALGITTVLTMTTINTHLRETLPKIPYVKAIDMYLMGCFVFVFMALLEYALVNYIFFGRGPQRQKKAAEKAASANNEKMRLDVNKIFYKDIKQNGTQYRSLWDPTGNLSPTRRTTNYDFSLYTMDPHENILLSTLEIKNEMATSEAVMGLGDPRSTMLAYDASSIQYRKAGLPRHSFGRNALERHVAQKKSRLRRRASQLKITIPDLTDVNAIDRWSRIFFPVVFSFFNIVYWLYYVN
T1 sequence (P18507 40-475): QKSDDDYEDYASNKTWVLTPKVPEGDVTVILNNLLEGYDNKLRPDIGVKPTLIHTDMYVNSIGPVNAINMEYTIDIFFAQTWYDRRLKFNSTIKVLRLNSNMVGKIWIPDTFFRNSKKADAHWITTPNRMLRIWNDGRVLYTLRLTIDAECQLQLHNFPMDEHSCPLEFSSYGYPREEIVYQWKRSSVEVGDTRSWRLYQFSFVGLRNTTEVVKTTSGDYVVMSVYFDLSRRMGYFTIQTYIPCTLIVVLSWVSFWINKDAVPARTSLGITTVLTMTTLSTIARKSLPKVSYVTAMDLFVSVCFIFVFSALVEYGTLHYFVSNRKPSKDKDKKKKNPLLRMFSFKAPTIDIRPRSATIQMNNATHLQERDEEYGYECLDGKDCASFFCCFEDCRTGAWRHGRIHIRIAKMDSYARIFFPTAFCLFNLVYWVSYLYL

3-Benzylamino-3,3-di(C-allyl)-1,4-butyrolactone [Compound 16]
% of stimulation of the GABA currents ([1]; 200 μM, α1β2γ2): +115 ± 30% | Inhibition of the radiolabeled ligands % TBPS ([2]; 100 μM): 62%

C[C@H]1C(=O)OC[C@H]1NC(=O)OCc1ccccc1 (relative stereo) [Compound 27, cis-3-benzyloxycarbonylamino-2-(C-methyl)-1,4-butyrolactone]
stimulation of muscimol binding (printed in the % Muscimol inhibition column) [3]: 10% stimulation | Inhibition of the radiolabeled ligands % Flu ([4]; 100 μM): 0% | % of stimulation of the GABA currents ([1]; 50 μM, α1β2γ2): −1 ± 2% | Inhibition of the radiolabeled ligands % TBPS ([2]; 100 μM): 0%

C[C@@H]1C(=O)OC[C@H]1NC(=O)OCc1ccccc1 (relative stereo) [Compound 28, trans-3-benzyloxycarbonylamino-2-(C-methyl)-1,4-butyrolactone]
Inhibition of the radiolabeled ligands % Muscimol [3]: 0% | Inhibition of the radiolabeled ligands % Flu ([4]; 100 μM): 0% | stimulating activities for the GABA current (in words) [1]: low stimulating activities | % of stimulation of the GABA currents ([1]; 50 μM, α1β2γ2): −7 ± 7% | Inhibition of the radiolabeled ligands % TBPS ([2]; 100 μM): 0%

C[C@@H]1C(=O)OC[C@H]1N(Cc1ccccc1)C(=O)OCc1ccccc1 (relative stereo) [Compound 42, trans-3-(N-benzyl-N-benzyloxycarboyl)amino-2-(C-methyl)-1,4-butyrolactone]
Inhibition of the radiolabeled ligands % Flu ([4]; 100 μM): 0% | % of stimulation of the GABA currents ([1]; 200 μM, α1β2γ2): +3 ± 10% | Inhibition of the radiolabeled ligands % TBPS ([2]; 10 μM): 15% | Inhibition of the radiolabeled ligands % TBPS ([2]; 100 μM): 52%

C[C@@H]1C(=O)OC[C@@H]1N(Cc1ccccc1)C(=O)OCc1ccccc1 (relative stereo) [Compound 43, cis-3-(N-benzyl-N-benzyloxycarboyl)amino-2-(C-methyl)-1,4-butyrolactone]
Inhibition of the radiolabeled ligands % Muscimol [3]: 0% | Inhibition of the radiolabeled ligands % Flu ([4]; 10 μM): 20% | Inhibition of the radiolabeled ligands % Flu ([4]; 100 μM): 30% | % of stimulation of the GABA currents ([1]; 200 μM, α1β2γ2): −3 ± 3% | Inhibition of the radiolabeled ligands % TBPS ([2]; 10 μM): 35% | Inhibition of the radiolabeled ligands % TBPS ([2]; 100 μM): 60%

O=C1CC(NC(=O)OCc2ccccc2)CO1 (centres unmarked) [Compound 26, 3-Benzyloxycarbonylamino-1,4-butyrolactone]
Inhibition of the radiolabeled ligands % Muscimol [3]: 0% | Inhibition of the radiolabeled ligands % Flu ([4]; 100 μM): 0% | stimulating activities for the GABA current (in words) [1]: low stimulating activities | % of stimulation of the GABA currents ([1]; 0.1 μM, α1β2γ2): +47 ± 90% | % of stimulation of the GABA currents ([1]; 200 μM, α1β2γ2): +47 ± 9% | Inhibition of the radiolabeled ligands % TBPS ([2]; 100 μM): 0%

CCCC1(CCC)C(=O)OCC1NC(=O)OCc1ccccc1 (centres unmarked) [Compound 30, 3-Benzyloxycarbonylamino-2,2-(C-dipropyl)-1,4-butyrolactone]
Inhibition of the radiolabeled ligands % Muscimol [3]: 0% | Inhibition of the radiolabeled ligands % Flu ([4]; 100 μM): 0% | activation at 1 µM ([1]; 1 μM, α1β2γ2, read-out: % of stimulation of the GABA currents): 15% | activation at 10 µM ([1]; 10 μM, α1β2γ2, read-out: % of stimulation of the GABA currents): 140% | activation at 50 µM ([1]; 50 μM, α1β2γ2, read-out: % of stimulation of the GABA currents): 250% | activation at 200 µM [1, 8]: 51% | Inhibition of the radiolabeled ligands % TBPS ([2]; 10 μM): 0 10 μM) % | Inhibition of the radiolabeled ligands % TBPS ([2]; 100 μM): 55%

CCCC1(CCC)C(=O)OCC1NS(=O)(=O)c1ccc(Cl)cc1 (centres unmarked) [Compound 31, 3-(p-Chlorophenylsulfonamido)-2,2-di(C-propyl)-1,4-butyrolactone]
insoluble at (concentration) ([5]; in the GABA current test): insoluble at higher concentrations | solubility ([5]; pH 7.4): > 5 µM | Inhibition of the radiolabeled ligands % Muscimol [3]: 0% | activation at 5 µM ([1]; 5 μM, α1β2γ2, read-out: % of stimulation of the GABA currents): 23% | IC50 [2]: 10 µM and ~10 µM

CCCC1(CCC)C(=O)OCC1NS(=O)(=O)c1ccc(C(F)(F)F)cc1 (centres unmarked) [Compound 32, 3-(p-Trifluoromethylphenylsulfonamido)-2,2-di(C-propyl)-1,4-butyrolactone]
Inhibition of the radiolabeled ligands % Muscimol [3]: 0% | stimulation of the binding of flunitrazepam (printed in the % Flu inhibition column) ([4]; 100 μM): 15-20% | Inhibition of the radiolabeled ligands % TBPS ([2]; 10 μM, anterior part of the brain): 100% | Inhibition of TBPS in the cerebellum ([2]; cerebellum): incomplete

CCCC1(CCC)C(=O)OCC1NS(=O)(=O)c1ccc(OC)cc1 (centres unmarked) [Compound 33, 3-(p-Methoxyphenylsulfonamido)-2,2-di(C-propyl)-1,4-butyrolactone]
Inhibition of the radiolabeled ligands % Muscimol [3]: 0% | stimulation of the binding of flunitrazepam (printed in the % Flu inhibition column) ([4]; 100 μM): weak | IC50 [2]: 50 µM

CCCC1(CCC)C(=O)OCC1NC(=O)c1ccccc1 (centres unmarked) [Compound 34]
Inhibition of the radiolabeled ligands % Muscimol [3]: 0% | stimulation of the binding of flunitrazepam (printed in the % Flu inhibition column) ([4]; 100 μM): weak stimulation and weak | activation at 2 µM [1, 9]: 17% | activation at 20 µM [1, 9]: 207% | activation at 200 µM [1, 8]: 420%

C=CCOC(=O)NC1COC(=O)C1(CCC)CCC (centres unmarked) [Compound 35, 3-Allyloxycarbonylamino-2,2-di(C-propyl)-1,4-butyrolactone]
Inhibition of the radiolabeled ligands % Muscimol [3]: 0% | stimulation of the binding of flunitrazepam (printed in the % Flu inhibition column) ([4]; 100 μM): weak stimulation and weak | times more powerful than α-EMTBL in stimulating the currents produced by GABA [1]: up to 100 times | activation at 2 µM [1, 9]: 26% | activation at 20 µM [1, 9]: 229% | activation at 200 µM [1, 8]: 765%

CCCC1(CCC)C(=O)OCC1NC(=O)OCC (centres unmarked) [Compound 36, 3-Ethyloxycarbonylamino-2,2-di(C-propyl)-1,4-butyrolactone]
Inhibition of the radiolabeled ligands % Muscimol [3]: 0% | Inhibition of the radiolabeled ligands % Flu ([4]; 100 μM): 0% | IC50 [2]: > 100 µM

CCC1(C)COC(=O)C1 (centres unmarked) [Compound 54]
convulsant or anticonvulsant effect in mice (mice): convulsant effects

CCC1(C)CCOC1=O (centres unmarked) [Compound 55]
IC50 [6]: 2300 µM | % of stimulation of GABA (concentration) ([7]; 300 μM): +101 ± 8% | convulsant or anticonvulsant effect in mice (mice): anticonvulsant properties

CCC1(CC)CCNC1=O [Compound 58]
IC50 [6]: 5800 µM | % of stimulation of GABA (concentration) ([7]; 1 μM): +137 ± 6%

CC1(CC(F)(F)F)CCSC1=O (centres unmarked) [Compound 60]
IC50 [6]: 520 µM | % of stimulation of GABA (concentration) ([7]; 300 μM): +160 ± 17%

CC1(CC(F)(F)F)CCOC1=O (centres unmarked) [Compound 61]
IC50 [6]: 3100 µM | % of stimulation of GABA (concentration) ([7]; 1 μM): +146 ± 12%
